Measured values from PMC6136348, “In the quest for new targets for pathogen eradication: the adenylosuccinate synthetase from the bacterium Helicobacter pylori” (Journal of Enzyme Inhibition and Medicinal Chemistry, 2018).

Columns and labels:
[1] = target: T1, adenylosuccinate synthetase (AdSS) (Helicobacter pylori, UniProt P56137); assay: spectrophotometric enzyme assay at […] nm, competitive inhibition fit and Dixon plot (reaction product tested as inhibitor); type: biochemical
T1 construct: gene purA; recombinant protein expressed from pET21b-HPpurA
T1 sequence (P56137 1-411): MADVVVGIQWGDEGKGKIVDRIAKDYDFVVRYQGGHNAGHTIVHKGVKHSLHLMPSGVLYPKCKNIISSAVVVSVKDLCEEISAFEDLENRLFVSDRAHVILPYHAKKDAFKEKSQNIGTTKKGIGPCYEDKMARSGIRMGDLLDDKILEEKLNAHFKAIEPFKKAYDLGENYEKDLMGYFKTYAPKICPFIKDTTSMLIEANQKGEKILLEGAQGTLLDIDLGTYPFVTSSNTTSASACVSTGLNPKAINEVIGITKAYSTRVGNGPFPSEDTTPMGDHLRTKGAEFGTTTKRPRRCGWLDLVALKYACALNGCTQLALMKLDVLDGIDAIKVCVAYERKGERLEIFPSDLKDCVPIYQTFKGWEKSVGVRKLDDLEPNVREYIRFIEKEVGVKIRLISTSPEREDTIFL

[2] = target: T1, adenylosuccinate synthetase (AdSS); assay: spectrophotometric enzyme assay at […] nm, competitive inhibition fit and Dixon plot; type: biochemical

Compound | Ki [1] | Ki [2]
O=C(O)C[C@H](Nc1ncnc2c1ncn2[C@@H]1O[C@H](COP(=O)(O)O)[C@@H](O)[C@H]1O)C(=O)O [adenylosuccinate] | 3500 ± 300 nM | 
O=CN(O)CC(=O)O [hadacidin] |  | 190 ± 20 nM
